From patent US11311562B2, “Methods for reducing the incidence of oxidative stress using human milk oligosaccharides, vitamin c and anti-inflammatory agents” (priority 2010, dated 2022)

Assays:
[1] = system: respiratory syncytial virus (RSV); format: cell-based; conditions: HMOs added at 1 mg/mL or 10 mg/mL; virus dose about 500-1,000 units/mL
[2] = system: human parainfluenza virus (HPIV3); format: cell-based; conditions: HMOs added at 1 mg/mL or 10 mg/mL; virus dose about 500-1,000 units/mL
H1N1 influenza virus [3] = format: cell-based; conditions: for IC50 (mg HMO/mL) H1N1 Influenza: HMOs added at 1 mg/mL or 10 mg/mL, virus dose about 500-1,000 units/mL
H1N1 influenza virus [4] = format: cell-based; conditions: 10 mg/mL HMO; MDCK cells; FIG. 1
IP-10 = IP-10 in supernatants of HMO-pretreated, RSV-infected PBMCs; format: cell-based, human; conditions: for IP-10 in virus-infected variables: RSV MOI 0.1, 24 h pretreatment, both donors, FIGS. 3-6; for IP-10 in virus-infected variables / reducing inflammation caused by RSV: PBMCs; for reducing inflammation caused by RSV: pretreatment for 24 hours
Description: (§1) Specifically, either 3′SL or 6′SL is added, at concentrations of 0.1 mg/mL, 0.2 mg/mL, or 0.5 mg/mL to fresh peripheral blood mononuclear cells (PBMCs) and incubated at 37° C. in 5% CO2 to pretreat the cells for approximately 24 hours. LNnT is added, at concentrations of 0.1 mg/mL, 0.2 mg/mL, or 1 mg/mL to PBMCs and incubated at 37° C. in 5% CO2 to pretreat the cells for approximately 24 hours. Lactose is included as a carbohydrate control. Matched endotoxin unit concentration controls are included to allow differentiation of ingredient effects from inherent low levels of endotoxin. Some variables are then incubated with RSV at a multiplicity of infection (MOI) of 0.1 for approximately 1 hour at 37° C. in 5% in CO2. Uninfected control variables are incubated with medium for approximately 1 hour at 37° C. in 5% CO2. After approximately one hour, fresh medium alone, or fresh medium containing the appropriate concentration of 3′SL, 6′SL, LNnT, lactose, or endotoxin is added to the appropriate tubes and the cells are incubated for 48 hours at 37° C. in 5% CO2. Supernatants are collected at 24 and 48 hours post-infection. Cytokines are measured in supernatants for each variable at 24 and 48 hours to assess the effects of HMOs on the early immune response to RSV. Cytokines are measured using custom Bio-Plex Human cytokine kits from Bio-Rad.
IP-10 is a CXC chemokine that attracts, binds to and activates the CXCR3 receptor on natural killer cells and memory T cells. IP-10 is expressed by monocytes and a number of other cells, and is induced by interferon. A positive correlation exists between RSV clinical disease severity in children (as measured by: length of hospital stay, fever, and number of days supplemental O2 is required) and serum IP-10. Therefore, a decrease in IP-10 signals a decrease in severity of RSV disease experienced.

interleukin 10 (IL-10) = test: IL-10 in supernatants of HMO-pretreated PBMCs with or without RSV; format: cell-based, human; conditions: PBMCs in the presence or absence of RSV; FIGS. 7-10
Description: as §1

[5] = system: monocyte-derived cytokines; test: monocyte-derived cytokines in supernatants of HMO-pretreated PBMCs with or without RSV; format: cell-based, human
Description: as §1

[6] = PBMCs in the presence or absence of the virus

For `CC(=O)N[C@H]1[C@H]([C@H](O)[C@H](O)CO)O[C@@](OC[C@H]2O[C@@H](O[C@H]3[C@H](O)[C@@H](O)[C@H](O)O[C@@H]3CO)[C@H](O)[C@@H](O)[C@H]2O)(C(=O)O)C[C@@H]1O` [6′SL, 6′-sialyllactose], the “IC50 (mg HMO/mL) RSV” value [1] was greater than 10 mg HMO/mL, the “IC50 (mg HMO/mL) HPIV3” value [2] was greater than 10 mg HMO/mL and the “IC50 (mg HMO/mL) H1N1 Influenza” value (H1N1 influenza virus [3]) was roughly 10 mg HMO/mL. The “inhibition of virus infectivity” value (H1N1 influenza virus [4]) was “approximately 60%”, the “IP-10 in virus-infected variables” value (IP-10) was “downregulates IP-10” and the “IP-10 level compared with uninfected controls” value (IP-10; RSV-infected PBMCs) was “reduce IP-10 to levels found in uninfected controls”. The “downregulation of IP-10 compared with 3′SL” value (IP-10; RSV-infected PBMCs) was “more effective than 3′SL”, the “reducing inflammation caused by RSV” value (IP-10) was “effective” and the IL-10 concentration (interleukin 10 (IL-10)) was “increases interleukin 10 (IL-10) concentration in a dose-dependent manner”. For the same molecule, the “production of monocyte-derived cytokines (immunomodulatory)” value (“production of monocyte-derived cytokines” for short) ([5]; PBMCs in the absence of the virus) was “induces and/or modifies the production of monocyte-derived cytokines such as IL-10, MIP-1β, Interferon-γ, IL-8, IL-1α, IL-1β, and IL-1ra”.

`CC(=O)N[C@H]1[C@H]([C@H](O)[C@H](O)CO)O[C@@](O[C@H]2[C@@H](O)[C@@H](CO)O[C@@H](O[C@H]3[C@H](O)[C@@H](O)C(O)O[C@@H]3CO)[C@@H]2O)(C(=O)O)C[C@@H]1O` (stereo partly drawn) [3′SL, 3′-sialyllactose] was tested, and the “IC50 (mg HMO/mL) RSV” value [1] was greater than 10 mg HMO/mL, the “IC50 (mg HMO/mL) HPIV3” value [2] was greater than 10 mg HMO/mL and the “anti-viral activity against H1N1 influenza virus” value (H1N1 influenza virus [3]; HMO at 1 mg/mL) was “inhibited”. For the same molecule, the “IC50 (mg HMO/mL) H1N1 Influenza” value (H1N1 influenza virus [3]) was roughly 5 mg HMO/mL, the “IP-10 in virus-infected variables” value (IP-10) was “dampen RSV-induced IP-10” and the “RSV-induced IP-10, Donor B” value (IP-10; RSV-infected PBMCs, Donor B, 0.1-0.5 mg/mL) was “not effective”. For the same molecule, the “RSV-induced IP-10, Donor E” value (IP-10; RSV-infected PBMCs, Donor E, 0.1-0.5 mg/mL) was “downregulates RSV-induced IP-10”, the “reducing inflammation caused by RSV” value (IP-10) was “effective” and the “production of monocyte-derived cytokines” value [5, 6] was “induces and/or modifies the production of monocyte-derived cytokines such as MIP-1β, Interferon-γ, IL-8, and IL-1ra”.

`CC(=O)N[C@H]1[C@H](O[C@H]2[C@@H](O)[C@@H](CO)O[C@@H](O[C@H]3[C@H](O)[C@@H](O)C(O)O[C@@H]3CO)[C@@H]2O)O[C@H](CO)[C@@H](O[C@@H]2O[C@H](CO)[C@H](O)[C@H](O)[C@H]2O)[C@@H]1O` (mixture of isomers) [LNnT, lacto-N-neotetraose] was tested, and the “IC50 (mg HMO/mL) RSV” value [1] was greater than 10 mg HMO/mL, the “IC50 (mg HMO/mL) H1N1 Influenza” value (H1N1 influenza virus [3]) was greater than 10 mg HMO/mL and the “IP-10 in virus-infected variables” value (IP-10) was “clearly downregulates IP-10”. The “IP-10 level compared with uninfected controls” value (IP-10; RSV-infected PBMCs) was “reduce IP-10 to levels found in uninfected controls”, the “downregulation of IP-10 compared with 3′SL” value (IP-10; RSV-infected PBMCs) was “more effective than 3′SL” and the “reducing inflammation caused by RSV” value (IP-10) was “effective”. For the same molecule, the IL-10 concentration (interleukin 10 (IL-10)) was “increases IL-10 concentration in a dose-dependent manner” and the “production of monocyte-derived cytokines” value [5, 6] was “induces and/or modifies the production of monocyte-derived cytokines such as IL-10, MIP-1β, Interferon-γ, IL-8, IL-1α, IL-1β, and IL-1ra”.
